Read-outs that look alike come from different tables or passages of the source.
What was measured:
Bcl-xL = Bcl-xL (Homo sapiens, UniProt Q07817); assay: TR-FRET Bcl-xL binding assay (competition with probe F-Bak)
Protocol: For the assay, test compounds were serially diluted in DMSO starting at 50 μM (2× starting concentration; 10% DMSO) and 10 μL transferred into a 384-well plate. 10 μL of a protein/probe/antibody mix was then added to each well at final concentrations listed below:
The samples were then mixed on a shaker for 1 minute and incubated for an additional 2 hours at room temperature. For each assay plate, a probe/antibody and protein/antibody/probe mixture were included as a negative and a positive control, respectively. Fluorescence was measured on the Envision (Perkin Elmer) using a 340/35 nm excitation filter and 520/525 (F-Bak) and 495/510 nm (Tb-labeled anti-his antibody) emission filters. Dissociation constants (Ki) were determined using Wang's equation (Wang, 1995, FEBS Lett. 360:111-114). The TR-FRET assay can be performed in the presence of varying concentrations of human serum (HS) or fetal bovine serum (FBS). Compounds were tested both without HS and in the presence of 1% HS.

[1] = system: Molt-4 human acute lymphoblastic leukemia cells; assay: Molt-4 cell viability assay; assay type: cell-based; conditions: 10% human serum, 48 hours, CellTiter-Glo, read-out: Molt-4 Viability EC50 (nM, 10% HS)
Protocol: In one exemplary set of conditions, Molt-4 (ATCC, Manassas, Va.) human acute lymphoblastic leukemia cells were plated 12,500 cells per well in 384-well tissue culture plates (Corning, Corning, N.Y.) in a total volume of 25 μL tissue culture medium supplemented with 10% human serum (Sigma-Aldrich, St. Louis, Mo.) and treated with a 3-fold serial dilution of the compounds of interest from 10 μM to 0.0005 μM. Each concentration was tested in duplicate at least 3 separate times. The number of viable cells following 48 hours of compound treatment was determined using the CellTiter-Glo® Luminescent Cell Viability Assay according to the manufacturer's recommendations (Promega Corp., Madison, Wis.). Compounds were tested in the presence of 10% HS.

[2] = in the presence of 1% human serum (HS), read-out: Bcl-xL Binding Ki (nM, 1% HS)
[3] = without human serum, read-out: Bcl-xL Binding Ki

Sequence of Bcl-xL (Q07817 whole entry): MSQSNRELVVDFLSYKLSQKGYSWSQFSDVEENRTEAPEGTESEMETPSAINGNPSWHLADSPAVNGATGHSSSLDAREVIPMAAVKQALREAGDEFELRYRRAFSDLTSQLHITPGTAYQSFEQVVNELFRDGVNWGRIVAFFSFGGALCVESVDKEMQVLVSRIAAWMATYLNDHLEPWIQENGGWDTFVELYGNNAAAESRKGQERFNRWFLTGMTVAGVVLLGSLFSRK

Compound: CNCCOC12CC3(C)CC(C)(CC(Cn4ncc(-c5ccc(-c6ccc7c(c6)N(C(=O)Nc6nc8ccccc8s6)CCC7)nc5C(=O)O)c4C)(C3)C1)C2 [Compound W3.01, 6-[1-(1,3-benzothiazol-2-ylcarbamoyl)-1,2,3,4-tetrahydroquinolin-7-yl]-3-[1-({3,5-dimethyl-7-[2-(methylamino)ethoxy]tricyclo[3.3.1.1^3,7]dec-1-yl}methyl)-5-methyl-1H-pyrazol-4-yl]pyridine-2-carboxylic acid]
- Ki (Bcl-xL; [2]): 0.009 nM
- Ki (Bcl-xL; [3]): < 0.001 nM
- EC50 [1]: 0.3 nM

Compound: CNCCOC12CC3(C)CC(C)(CC(Cn4ncc(-c5ccc(-c6ccc7c(c6)N(C(=O)Nc6nc8ccccc8s6)CCO7)nc5C(=O)O)c4C)(C3)C1)C2 [Compound W3.02]
- Ki (Bcl-xL; [2]): 0.047 nM
- Ki (Bcl-xL; [3]): < 0.001 nM
- EC50 [1]: 0.5 nM

Compound: CNCCOC12CC3(C)CC(C)(CC(Cn4ncc(-c5ccc(-c6ccc7c(c6)N(C(=O)Nc6nc8ccccc8s6)CCN7C)nc5C(=O)O)c4C)(C3)C1)C2 [Compound W3.03, 6-[4-(1,3-benzothiazol-2-ylcarbamoyl)-1-methyl-1,2,3,4-tetrahydroquinoxalin-6-yl]-3-[1-({3,5-dimethyl-7-[2-(methylamino)ethoxy]tricyclo[3.3.1.1^3,7]dec-1-yl}methyl)-5-methyl-1H-pyrazol-4-yl]pyridine-2-carboxylic acid]
- Ki (Bcl-xL; [2]): 0.019 nM
- Ki (Bcl-xL; [3]): < 0.001 nM
- EC50 [1]: 1.4 nM

Compound: Cc1c(-c2ccc(N3CCn4cnc(C(=O)Nc5nc6ccccc6s5)c4C3)nc2C(=O)O)cnn1CC12CC3(C)CC(C)(C1)CC(OCCN)(C3)C2 [Compound W3.04, 3-(1-{[3-(2-aminoethoxy)-5,7-dimethyltricyclo[3.3.1.1^3,7]dec-1-yl]methyl}-5-methyl-1H-pyrazol-4-yl)-6-[1-(1,3-benzothiazol-2-ylcarbamoyl)-5,6-dihydroimidazo[1,5-a]pyrazin-7(8H)-yl]pyridine-2-carboxylic acid]
- Ki (Bcl-xL; [2]): 0.049 nM
- Ki (Bcl-xL; [3]): < 0.001 nM
- EC50 [1]: 58.9 nM

Compound: Cc1c(-c2ccc(N3CCc4c(O)ccc(C(=O)Nc5nc6ccccc6s5)c4C3)nc2C(=O)O)cnn1CC12CC3(C)CC(C)(C1)CC(OCCN)(C3)C2 [Compound W3.05, 3-(1-{[3-(2-aminoethoxy)-5,7-dimethyltricyclo[3.3.1.1^3,7]dec-1-yl]methyl}-5-methyl-1H-pyrazol-4-yl)-6-[8-(1,3-benzothiazol-2-ylcarbamoyl)-5-hydroxy-3,4-dihydroisoquinolin-2(1H)-yl]pyridine-2-carboxylic acid]
- Ki (Bcl-xL; [2]): 0.23 nM
- Ki (Bcl-xL; [3]): 0.02 nM
- EC50 [1]: 79 nM

Compound: CNCCOC12CC3(C)CC(C)(CC(Cn4ncc(-c5ccc(-c6ccc7cccc(C(=O)Nc8nc9ccccc9s8)c7c6)nc5C(=O)O)c4C)(C3)C1)C2 [Compound W3.06, 6-[8-(1,3-benzothiazol-2-ylcarbamoyl)naphthalen-2-yl]-3-[1-({3,5-dimethyl-7-[2-(methylamino)ethoxy]tricyclo[3.3.1.1^3,7]dec-1-yl}methyl)-5-methyl-1H-pyrazol-4-yl]pyridine-2-carboxylic acid]
- Ki (Bcl-xL; [2]): 0.22 nM
- Ki (Bcl-xL; [3]): < 0.001 nM
- EC50 [1]: 3.8 nM

Compound: CNCCOC12CC3(C)CC(C)(CC(Cn4ncc(-c5ccc(-c6cnc7cccc(C(=O)Nc8nc9ccccc9s8)c7c6)nc5C(=O)O)c4C)(C3)C1)C2 [Compound W3.10, 6-[5-(1,3-benzothiazol-2-ylcarbamoyl)quinolin-3-yl]-3-[1-({3,5-dimethyl-7-[2-(methylamino)ethoxy]tricyclo[3.3.1.1^3,7]dec-1-yl}methyl)-5-methyl-1H-pyrazol-4-yl]pyridine-2-carboxylic acid]
- Ki (Bcl-xL; [2]): 0.0259 nM
- Ki (Bcl-xL; [3]): < 0.001 nM

Compound: COCCOC12CC3(C)CC(C)(CC(Cn4ncc(-c5ccc(N6CCc7cc(N8CCC(N)C8)cc(C(=O)Nc8nc9ccccc9s8)c7C6)nc5C(=O)O)c4C)(C3)C1)C2 (stereo not drawn) [Compound W3.17, 6-[6-(3-aminopyrrolidin-1-yl)-8-(1,3-benzothiazol-2-ylcarbamoyl)-3,4-dihydroisoquinolin-2(1H)-yl]-3-(1-{[3-(2-methoxyethoxy)-5,7-dimethyltricyclo[3.3.1.1^3,7]dec-1-yl]methyl}-5-methyl-1H-pyrazol-4-yl)pyridine-2-carboxylic acid]
- Ki (Bcl-xL; [2]): 2.3 nM
- Ki (Bcl-xL; [3]): 0.49 nM

Compound: CNCCN(C)c1cc2c(c(C(=O)Nc3nc4ccccc4s3)c1)CN(c1ccc(-c3cnn(CC45CC6(C)CC(C)(C4)CC(OCCOC)(C6)C5)c3C)c(C(=O)O)n1)CC2 [Compound W3.21, 6-[8-(1,3-benzothiazol-2-ylcarbamoyl)-6-{methyl[2-(methylamino)ethyl]amino}-3,4-dihydroisoquinolin-2(1H)-yl]-3-(1-{[3-(2-methoxyethoxy)-5,7-dimethyltricyclo[3.3.1.1^3,7]dec-1-yl]methyl}-5-methyl-1H-pyrazol-4-yl)pyridine-2-carboxylic acid]
- Ki (Bcl-xL; [2]): 0.14 nM
- Ki (Bcl-xL; [3]): 0.014 nM

Compound: CNCCOC12CC3(C)CC(C)(CC(Cn4ncc(-c5ccc(N6CCc7cc(OC)cc(C(=O)Nc8nc9ccccc9s8)c7C6)nc5C(=O)O)c4C)(C3)C1)C2 [Compound W3.22, 6-[8-(1,3-benzothiazol-2-ylcarbamoyl)-6-methoxy-3,4-dihydroisoquinolin-2(1H)-yl]-3-[1-({3,5-dimethyl-7-[2-(methylamino)ethoxy]tricyclo[3.3.1.1^3,7]dec-1-yl}methyl)-5-methyl-1H-pyrazol-4-yl]pyridine-2-carboxylic acid]
- Ki (Bcl-xL; [2]): 0.108 nM
- Ki (Bcl-xL; [3]): < 0.01 nM

Compound: Cc1c(-c2ccc(-c3ccc4nccc(C(=O)Nc5nc6ccccc6s5)c4c3)nc2C(=O)O)cnn1CC12CC3(C)CC(C)(C1)CC(OCCN)(C3)C2 [Compound W3.23, 3-(1-{[3-(2-aminoethoxy)-5,7-dimethyltricyclo[3.3.1.1^3,7]dec-1-yl]methyl}-5-methyl-1H-pyrazol-4-yl)-6-[4-(1,3-benzothiazol-2-ylcarbamoyl)quinolin-6-yl]pyridine-2-carboxylic acid]
- Ki (Bcl-xL; [2]): 1.1 nM
- Ki (Bcl-xL; [3]): 0.021 nM

Compound: Cc1c(-c2ccc(N3CCc4cccc(C(=O)Nc5nc6ccccc6s5)c4C3)nc2C(=O)O)cnn1CC12CC3(C)CC(C)(C1)CC(OCCNCCS(=O)(=O)N(C)C)(C3)C2 [Compound W3.36, 6-(8-(benzo[d]thiazol-2-ylcarbamoyl)-3,4-dihydroisoquinolin-2(1H)-yl)-3-(1-((3-(2-((2-(N,N-dimethylsulfamoyl)ethyl)amino)ethoxy)-5,7-dimethyladamantan-1-yl)methyl)-5-methyl-1H-pyrazol-4-yl)picolinic acid]
- EC50 [1]: 6.9 nM

Compound: Cc1c(-c2ccc(N3CCc4cccc(C(=O)Nc5nc6ccccc6s5)c4C3)nc2C(=O)O)cnn1CC12CC3(C)CC(C)(C1)CC(OCCNCCC(=O)N(C)C)(C3)C2 [Compound W3.38, 6-[8-(1,3-benzothiazol-2-ylcarbamoyl)-3,4-dihydroisoquinolin-2(1H)-yl]-3-(1-{[3-(2-{[3-(dimethylamino)-3-oxopropyl]amino}ethoxy)-5,7-dimethyltricyclo[3.3.1.1^3,7]dec-1-yl]methyl}-5-methyl-1H-pyrazol-4-yl)pyridine-2-carboxylic acid]
- EC50 [1]: 10.7 nM

Compound: Cc1c(-c2ccc(N3CCc4cccc(C(=O)Nc5nc6ccccc6s5)c4C3)nc2C(=O)O)cnn1CC12CC3(C)CC(C)(C1)CC(NC(=O)CN)(C3)C2 [Compound W3.40, 3-(1-{[3-(2-aminoacetamido)-5,7-dimethyltricyclo[3.3.1.1^3,7]decan-1-yl]methyl}-5-methyl-1H-pyrazol-4-yl)-6-{8-[(1,3-benzothiazol-2-yl)carbamoyl]-3,4-dihydroisoquinolin-2(1H)-yl}pyridine-2-carboxylic acid]
- Ki (Bcl-xL; [2]): 1.1 nM
- Ki (Bcl-xL; [3]): 0.024 nM

Compound: Cc1c(-c2ccc(N3CCc4cccc(C(=O)Nc5nc6ccccc6s5)c4C3)nc2C(=O)O)cnn1CC12CC3(C)CC(C)(CC(CCCN)(C3)C1)C2 [Compound W3.42, 3-(1-{[3-(3-aminopropyl)-5,7-dimethyltricyclo[3.3.1.1^3,7]dec-1-yl]methyl}-5-methyl-1H-pyrazol-4-yl)-6-[8-(1,3-benzothiazol-2-ylcarbamoyl)-3,4-dihydroisoquinolin-2(1H)-yl]pyridine-2-carboxylic acid]
- Ki (Bcl-xL; [2]): 4.36 nM
- Ki (Bcl-xL; [3]): 0.15 nM

Compound: Cc1c(-c2ccc(-c3cnc4cccc(C(=O)Nc5nc6ccccc6s5)c4c3)nc2C(=O)O)cnn1CC12CC3(C)CC(C)(C1)CC(OCCN)(C3)C2 [Compound W3.43, 3-(1-{[3-(2-aminoethoxy)-5,7-dimethyltricyclo[3.3.1.1^3,7]decan-1-yl]methyl}-5-methyl-1H-pyrazol-4-yl)-6-{5-[(1,3-benzothiazol-2-yl)carbamoyl]quinolin-3-yl}pyridine-2-carboxylic acid]
- Ki (Bcl-xL; [2]): 0.07 nM
- Ki (Bcl-xL; [3]): < 0.01 nM
